Results from the supplement of paper PMC8253809.

How the values were obtained:
SUDIPGVI [1] = diffuse intrinsic pontine glioma line; experiment: maximal growth inhibition (yFin) relative to DMSO / staurosporine; higher = more efficacious
Outline: (§1)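 EC50 and maximal response (yFin) were derived from the lowest-AICc fit, either three- or four-parameter log-logistic. The data were pooled CellTiter-Glo luminescence values, log2-transformed and normalised per plate to % activity between negative (solvent) and positive controls. Patient-derived pHGG/DIPG cell lines and astrocyte controls on 1% Geltrex-coated 384-well plates received a 10-point threefold dilution series (mean top concentration 35 μM) by pin tool, in triplicate, for 7 days (iAstro 3 days) at 37 °C, 5% CO2.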

SUDIPGXIII [2] = diffuse intrinsic pontine glioma line; experiment: as above
Outline: as §1

HGGX42 [3] = H3.3 G34R paediatric high-grade glioma line; experiment: as above
Outline: as §1

HGGX6 [4] = H3.3 G34R paediatric high-grade glioma line; experiment: as above
Outline: as §1

SUDIPGXVII [5] = diffuse intrinsic pontine glioma line; experiment: as above
Outline: as §1

HABS [6] = astrocyte control; experiment: area under dose-response curve of % growth inhibition (log2 RLU vs DMSO / staurosporine), 1e-11 to 1e-4 M (% x log10 M); higher = more growth inhibition
Outline: (§2)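 Cells were exposed in triplicate for 7 days (iAstro: 3 days) at 37 °C, 5% CO2 to a 10-point series of threefold dilutions with a mean top concentration of 35 μM. These were patient-derived pHGG/DIPG lines plus astrocytes, grown on 384-well plates coated with 1% Geltrex. Readout was CellTiter-Glo luminescence, log2-transformed and set per plate to % activity between solvent and positive controls, from which area under the curve was derived by trapezoid rule on a log-logistic fit or, failing that, a smoothing spline.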

SUDIPGXIX [7] = diffuse intrinsic pontine glioma line; experiment: as above
Outline: as §2

SUDIPGVI [8] = experiment: as above
Outline: as §2

DIPGX7 [9] = H3.3 K27M diffuse intrinsic pontine glioma line; experiment: as above
Outline: as §2

SUDIPGXXI [10] = diffuse intrinsic pontine glioma line; experiment: as above
Outline: as §2

SUDIPGIV [11] = diffuse intrinsic pontine glioma line; experiment: as above
Outline: as §2

DIPGX37 [12] = H3.3 K27M diffuse intrinsic pontine glioma line; experiment: as above
Outline: as §2

SUDIPGXIII [13] = experiment: as above
Outline: as §2

HGGX39 [14] = paediatric high-grade glioma line; experiment: as above
Outline: as §2

HGGX2 [15] = paediatric high-grade glioma line; experiment: as above
Outline: as §2

HGGX42 [16] = experiment: as above
Outline: as §2

DIPGX9 [17] = diffuse intrinsic pontine glioma line; experiment: as above
Outline: as §2

HGGX6 [18] = experiment: as above
Outline: as §2

DIPGX29 [19] = H3.3 K27M diffuse intrinsic pontine glioma line; experiment: as above
Outline: as §2

iAstro [20] = astrocyte control; experiment: as above
Outline: as §2

SUDIPGXVII [21] = experiment: as above
Outline: as §2

SUDIPGVI [22] = experiment: EC50 (inflection of fitted growth-inhibition curve) (log10 M)
Outline: as §1

SUDIPGXIII [23] = experiment: as above
Outline: as §1

HGGX42 [24] = experiment: as above
Outline: as §1

HGGX6 [25] = experiment: as above
Outline: as §1

SUDIPGXVII [26] = experiment: as above
Outline: as §1

HABS [27] = experiment: maximal growth inhibition (yFin) relative to DMSO / staurosporine; higher = more efficacious
Outline: as §1

SUDIPGXIX [28] = experiment: as above
Outline: as §1

SUDIPGXXI [29] = experiment: as above
Outline: as §1

SUDIPGIV [30] = experiment: as above
Outline: as §1

DIPGX37 [31] = experiment: as above
Outline: as §1

HGGX39 [32] = experiment: as above
Outline: as §1

HGGX2 [33] = experiment: as above
Outline: as §1

DIPGX9 [34] = experiment: as above
Outline: as §1

DIPGX29 [35] = experiment: as above
Outline: as §1

iAstro [36] = experiment: as above
Outline: as §1

HABS [37] = experiment: EC50 (inflection of fitted growth-inhibition curve) (log10 M)
Outline: as §1

SUDIPGXIX [38] = experiment: as above
Outline: as §1

SUDIPGXXI [39] = experiment: as above
Outline: as §1

SUDIPGIV [40] = experiment: as above
Outline: as §1

DIPGX37 [41] = experiment: as above
Outline: as §1

HGGX39 [42] = experiment: as above
Outline: as §1

HGGX2 [43] = experiment: as above
Outline: as §1

DIPGX9 [44] = experiment: as above
Outline: as §1

DIPGX29 [45] = experiment: as above
Outline: as §1

iAstro [46] = experiment: as above
Outline: as §1

DIPGX7 [47] = experiment: maximal growth inhibition (yFin) relative to DMSO / staurosporine; higher = more efficacious
Outline: as §1

DIPGX7 [48] = experiment: EC50 (inflection of fitted growth-inhibition curve) (log10 M)
Outline: as §1

Compound | maximal growth inhibition (SUDIPGVI [1]) [%] | maximal growth inhibition (SUDIPGXIII [2]) [%] | maximal growth inhibition (SUDIPGXVII [5]) [%] | area under dose-response curve (HABS [6]) | area under dose-response curve (SUDIPGXIX [7]) | area under dose-response curve (SUDIPGVI [8]) | area under dose-response curve (DIPGX7 [9]) | area under dose-response curve (SUDIPGXXI [10]) | area under dose-response curve (SUDIPGIV [11]) | area under dose-response curve (DIPGX37 [12]) | area under dose-response curve (SUDIPGXIII [13]) | area under dose-response curve (HGGX39 [14]) | area under dose-response curve (HGGX2 [15]) | area under dose-response curve (HGGX42 [16]) | area under dose-response curve (DIPGX9 [17]) | area under dose-response curve (HGGX6 [18]) | area under dose-response curve (DIPGX29 [19]) | area under dose-response curve (iAstro [20]) | area under dose-response curve (SUDIPGXVII [21]) | EC50 (log10 M) (SUDIPGVI [22]) | other results
CS[C@H]1SC[C@H]2C(=O)N(C)[C@@H](C(C)C)C(=O)OC[C@@H](NC(=O)c3cnc4ccccc4n3)C(=O)N[C@@H](C)C(=O)N(C)[C@@H]1C(=O)N(C)[C@@H](C(C)C)C(=O)OC[C@@H](NC(=O)c1cnc3ccccc3n1)C(=O)N[C@@H](C)C(=O)N2C [ECHINOMYCIN] | 71 | 70.4 | 96.4 | 371 | 520 | 399 | 488 | 577 | 505 | 508 | 335 | 507 | 383 | 432 | 510 | 337 | 489 | 139 | 425 | -10.8 | maximal growth inhibition (HGGX42 [3]): 76.3%; maximal growth inhibition (HGGX6 [4]): 75.4%; EC50 (log10 M) (SUDIPGXIII [23]): -8.75; EC50 (log10 M) (HGGX42 [24]): < -11; EC50 (log10 M) (HGGX6 [25]): -8.49; EC50 (log10 M) (SUDIPGXVII [26]): -8.81
COC(=O)Nc1nc2cc(C(=O)c3ccccc3)ccc2[nH]1 [MEBENDAZOLE] | 22.1 | – | – | 80.6 | 71 | 30.4 | 20.7 | 246 | 93.5 | 94.4 | 17.5 | 73.2 | 93.5 | 38.7 | 90 | 27.4 | 53.6 | 47.3 | 40.1 | -5.51 | maximal growth inhibition (HABS [27]): 32.9%; maximal growth inhibition (SUDIPGXIX [28]): 31.4%; maximal growth inhibition (SUDIPGXXI [29]): 98.3%; maximal growth inhibition (SUDIPGIV [30]): 63.1%; maximal growth inhibition (DIPGX37 [31]): 36.4%; maximal growth inhibition (HGGX39 [32]): 28.5%; maximal growth inhibition (HGGX2 [33]): 47.6%; maximal growth inhibition (DIPGX9 [34]): 36.9%; maximal growth inhibition (DIPGX29 [35]): 25.1%; maximal growth inhibition (iAstro [36]): 28.1%; EC50 (log10 M) (HABS [37]): -6.45; EC50 (log10 M) (SUDIPGXIX [38]): -6.45; EC50 (log10 M) (SUDIPGXXI [39]): -6.53; EC50 (log10 M) (SUDIPGIV [40]): -5.58; EC50 (log10 M) (DIPGX37 [41]): -6.7; EC50 (log10 M) (HGGX39 [42]): -6.61; EC50 (log10 M) (HGGX2 [43]): -5.91; EC50 (log10 M) (DIPGX9 [44]): -6.44; EC50 (log10 M) (DIPGX29 [45]): -6.23; EC50 (log10 M) (iAstro [46]): -5.94
Fc1ccc(-c2c3cccc(C(F)(F)F)c3nn2Cc2ccc(F)cc2Cl)cc1 | 42.8 | 51.1 | 30.9 | 9.3 | 2.47 | 39.9 | 53.6 | 165 | 67.1 | 53 | 52.8 | 39.9 | 13.1 | 40.2 | 31.5 | 6.34 | 38.1 | 38.3 | 40.7 | -4.94 | maximal growth inhibition (DIPGX7 [47]): 40.8%; maximal growth inhibition (SUDIPGXXI [29]): 112%; maximal growth inhibition (SUDIPGIV [30]): 60.3%; maximal growth inhibition (DIPGX37 [31]): 49.6%; maximal growth inhibition (HGGX39 [32]): 38.1%; maximal growth inhibition (HGGX42 [3]): 38.9%; maximal growth inhibition (DIPGX29 [35]): 38.7%; maximal growth inhibition (iAstro [36]): 33.9%; EC50 (log10 M) (DIPGX7 [48]): -5.33; EC50 (log10 M) (SUDIPGXXI [39]): -5.13; EC50 (log10 M) (SUDIPGIV [40]): -5.12; EC50 (log10 M) (DIPGX37 [41]): -5.07; EC50 (log10 M) (SUDIPGXIII [23]): -5.05; EC50 (log10 M) (HGGX39 [42]): -5.05; EC50 (log10 M) (HGGX42 [24]): -5.03; EC50 (log10 M) (DIPGX29 [45]): -4.98; EC50 (log10 M) (iAstro [46]): -5.13; EC50 (log10 M) (SUDIPGXVII [26]): -5.16
CC(C)C[C@H](NC(=O)[C@H](Cc1ccccc1)NC(=O)c1cnccn1)B(O)O [BORTEZOMIB] | 95.6 | 96.5 | 91.2 | 506 | 568 | 499 | 575 | 634 | 581 | 493 | 491 | 455 | 450 | 312 | 571 | 347 | 287 | 461 | 392 | -9.92 | maximal growth inhibition (HGGX6 [4]): 91.4%; EC50 (log10 M) (SUDIPGXIII [23]): -9.99; EC50 (log10 M) (HGGX6 [25]): -7.84; EC50 (log10 M) (SUDIPGXVII [26]): -8.34
